Experimental data: paper PMC7004151, “Synthesis and Structure‐Activity Relationships of N‐(4‐Benzamidino)‐Oxazolidinones: Potent and Selective Inhibitors of Kallikrein‐Related Peptidase 6” (Chemmedchem, 2019)
Like-named read-outs stand apart in the source and are kept apart here.

Tests used:
Format in all cases: biochemical
KLK6 = KLK6 (Homo sapiens, UniProt Q92876); experiment: KLK6 enzymatic inhibition assay (fluorogenic Boc-Phe-Ser-Arg-AMC substrate); parameters: made in house; settings: for IC50: read-out: KLK6 pIC50 (converted); for LipE: LipE=pIC50 – logP (KLK6 pIC50, ALogP)
Experimental: Using our previously published KLK6 assay format,21 we performed a HTS with the European Lead Factory (ELF),22 and tested ∼350,000 substances at 10 μM for their ability to reduce KLK6‐catalyzed hydrolysis of the fluorogenic Boc‐Phe‐Ser‐Arg‐AMC peptide.
High Throughput Screen: The European Lead Factory library of ∼350,000 compounds was used for high throughput screening at the Pivot Park Screening Center facilities in Oss, The Netherlands. […] For SPR, Biacore T200 was used and KLK6 was immobilized onto a CM5 chip. […] An 8 point 1 in 3 dilution series of 1 (50 μM to 0.02 μM) was also applied at the beginning and end of each screening day.
Enzyme inhibition assays: All chemicals were purchased from Sigma Aldrich (Gillingham, UK) unless otherwise stated.

Human thrombin = target: T1, Human thrombin (Homo sapiens, UniProt P00734); experiment: Thrombin enzyme inhibition assay; settings: read-out: Thrombin pIC50 (converted)
T1 construct: Human thrombin was purchased from Biopur; purchased Biopur
Experimental: (§1) Human thrombin was purchased from Biopur. Human trypsin was purchased from Polymun Scientific. Human Factor Xa was purchased from Enzo Life Sciences. Thrombin (20 nM), trypsin (0.000015 %) or Factor Xa (10 nM) were assayed in a similar manner to the KLKs but were incubated with compound for 20 min at room temperature in assay buffer (50 mM Tris HCl, pH 7.6, 100 mM NaCl, 1 mg/ml CHAPS, 0.05 % bovine serum albumin (BSA), 1 mM dithiothreitol (DTT)) before the addition of 5 μM, 2.5 μM or 1.5 μM Rhodamine 110 substrate (Cambridge bioscience ltd) respectively. Fluorescence intensity was then read at ex/em 485/535 following incubation for 1 h at room temperature (thrombin and factor Xa) or 20 min (trypsin).

Human trypsin = target: T2, Human trypsin (Homo sapiens, UniProt P07477); experiment: Trypsin enzyme inhibition assay; settings: for IC50: read-out: Trypsin pIC50 (converted)
T2 construct: purchased Polymun Scientific
Experimental: Human thrombin was purchased from Biopur. Human trypsin was purchased from Polymun Scientific. Human Factor Xa was purchased from Enzo Life Sciences. […] Fluorescence intensity was then read at ex/em 485/535 following incubation for 1 h at room temperature (thrombin and factor Xa) or 20 min (trypsin).

KLK7 = target: T3, KLK7 (Homo sapiens, UniProt P49862); experiment: KLK7 enzyme inhibition assay; settings: read-out: KLK7 pIC50 (converted)
T3 construct: purchased 2B scientific
T3 sequence (P49862 30-253, species assumed): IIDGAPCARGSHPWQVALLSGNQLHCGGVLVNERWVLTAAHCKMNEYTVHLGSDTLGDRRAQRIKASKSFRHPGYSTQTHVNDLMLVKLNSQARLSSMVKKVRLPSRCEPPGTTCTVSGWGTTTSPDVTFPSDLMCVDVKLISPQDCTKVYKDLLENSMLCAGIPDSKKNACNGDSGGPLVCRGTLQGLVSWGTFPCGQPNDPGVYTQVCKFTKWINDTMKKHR
Experimental: (§2) Enzyme inhibition assays: All chemicals were purchased from Sigma Aldrich (Gillingham, UK) unless otherwise stated. All experiments were conducted in 384 well black, low volume microplates (Greiner 784076) with a final volume of 20 μL and compounds were dispensed into assay plates using an ECHO 550 acoustic dispenser (Labcyte). KLK6 (5 nM) (prepared as in ref. 21) was incubated with test compounds for 30 min at room temperature in assay buffer (50 mM Tris, pH 7.5, 150 mM NaCl, 1 mM EDTA, 0.05 % tween 20, 0.1 % bovine serum albumin (BSA), 1 mM dithiothreitol (DTT)) before the reaction was started by addition of 20 μM Boc‐Phe‐Ser‐Arg‐AMC substrate (Bachem). Fluorescence intensity was read at ex/em 355/460 following incubation for 2 h in the dark at room temperature.
(§3) Assays using KLK7 and KLK8 (2B scientific) were conducted in the same manner as for KLK6 with the following exceptions. Both KLK7 and KLK8 required activation before assaying. KLK7 was combined with an equal volume of 20 μg/ml thermolysin (R&D systems) in activation buffer (50 mM Tris, pH 7.5, 10 mM CaCl2, 150 mM NaCl and 0.05 % Brij‐L23) and incubated at 37 °C for 2 h, the reaction was stopped with the addition of 100 mM EDTA in stop solution (50 mM Tris, 150 mM NaCl, pH 8.5). KLK8 was combined with an equal volume of 0.4 mU/mL lysyl endopeptidase (Alpha laboratories) in activation buffer (50 mM Tris, pH 8.0) and incubated at 37 °C for 30 min. Activated KLK7 (40 nM) and KLK8 (25 nM) were assayed with 40 μM Mca‐RPKPVE‐Nval‐WRK(Dnp)‐NH2 fluorogenic MMP substrate (R&D systems) and 25 μM Boc‐V‐P‐R‐AMC substrate (R&D systems), respectively.

Human Factor Xa = target: T4, Human Factor Xa (Homo sapiens, UniProt P00742); experiment: Factor Xa enzyme inhibition assay; settings: read-out: Factor Xa pIC50 (converted)
T4 construct: Human Factor Xa was purchased from Enzo Life Sciences; purchased Enzo Life Sciences
T4 sequence (P00742 235-488 limits assumed): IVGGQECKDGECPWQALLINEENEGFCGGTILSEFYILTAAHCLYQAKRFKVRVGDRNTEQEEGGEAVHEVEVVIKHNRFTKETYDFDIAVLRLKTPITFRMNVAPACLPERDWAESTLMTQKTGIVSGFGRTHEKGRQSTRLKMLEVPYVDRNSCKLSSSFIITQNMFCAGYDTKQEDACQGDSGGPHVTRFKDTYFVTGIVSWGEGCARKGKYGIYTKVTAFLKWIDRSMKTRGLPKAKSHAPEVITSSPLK
T4 sequence (P00742 41-179 partner limits assumed): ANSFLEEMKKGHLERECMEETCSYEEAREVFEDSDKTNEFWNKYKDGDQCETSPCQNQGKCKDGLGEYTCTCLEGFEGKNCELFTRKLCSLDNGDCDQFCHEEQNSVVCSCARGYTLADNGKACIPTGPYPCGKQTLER
Experimental: as §1

KLK8 = target: T5, KLK8 (Homo sapiens, UniProt O60259); experiment: KLK8 enzyme inhibition assay; settings: read-out: KLK8 pIC50 (converted)
T5 construct: purchased 2B scientific
T5 sequence (O60259 33-260): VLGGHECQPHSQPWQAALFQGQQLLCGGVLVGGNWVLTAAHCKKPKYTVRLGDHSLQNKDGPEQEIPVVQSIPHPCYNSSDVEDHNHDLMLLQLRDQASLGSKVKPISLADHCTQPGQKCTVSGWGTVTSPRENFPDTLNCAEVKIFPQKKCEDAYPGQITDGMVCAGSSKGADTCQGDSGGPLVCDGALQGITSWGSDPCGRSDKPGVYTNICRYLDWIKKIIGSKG
Experimental: as §2, §3

KLK4 = KLK4 (Homo sapiens, UniProt Q9Y5K2); experiment: KLK4 inhibition (selectivity); settings: read-out: KLK4 pIC50 (converted)
KLK4, sequence (Q9Y5K2 31-254, species assumed): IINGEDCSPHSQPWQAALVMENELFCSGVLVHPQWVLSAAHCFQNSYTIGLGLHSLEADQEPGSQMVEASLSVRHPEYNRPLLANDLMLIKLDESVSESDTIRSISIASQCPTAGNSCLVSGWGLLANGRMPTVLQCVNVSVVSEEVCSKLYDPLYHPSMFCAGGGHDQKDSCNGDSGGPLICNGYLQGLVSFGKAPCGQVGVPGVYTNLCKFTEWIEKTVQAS
From the text: Table 3 Activity of synthesized inhibitors against KLK6 and related proteases. | column: KLK4^a

[1] = resynthesized stereoisomers, enzymatic inhibition assay (Table 2)
[2] = synthesized inhibitors (Table 3), 8.6 = assay limit

Row | SMILES | IC50 (KLK6; [1]) [µM] | IC50 (Human thrombin) [µM] | IC50 (Human trypsin) [µM] | IC50 (KLK7) [µM] | IC50 (Human Factor Xa) [µM] | IC50 (KLK8) [µM] | IC50 (KLK6; [2]) [µM] | LipE (KLK6) | gain in potency for KLK6 (KLK6; relative to 5) [fold] | IC50 (KLK4) [µM] | KLK6 potency loss (KLK6; relative to 29) [fold] | selectivity against trypsin (Human trypsin; KLK6 over trypsin) [fold] | KLK6 potency loss (KLK6; relative to 32) [fold] | KLK6 potency loss (KLK6; relative to 5) [fold]
1 | COc1cccc([C@H](C)NC(=O)[C@@H]2CN(c3ccc(C(=N)N)cc3)C(=O)O2)c1 [Compound 10] | > 20 | – | – | – | – | – | – | – | – | – | – | – | – | –
2 | COc1cccc([C@@H](C)NC(=O)[C@H]2CN(c3ccc(C(=N)N)cc3)C(=O)O2)c1 [Compound 11, (5R)‐3‐(4‐carbamimidoylphenyl)‐N‐[(R)‐1‐(3‐methoxyphenyl)ethyl]‐2‐oxooxazolidine‐5‐carboxamide] | > 20 | > 20 | > 20 | > 20 | > 20 | > 20 | – | – | – | – | – | – | – | –
3 | COc1cccc(CNC(=O)[C@H]2CN(c3ccc(C(=N)N)cc3)C(=O)O2)c1 [Compound 23, (5R)‐3‐(4‐carbamimidoylphenyl)‐N‐(3‐methoxybenzyl)‐2‐oxooxazolidine‐5‐carboxamide] | – | > 20 | > 20 | > 20 | > 20 | > 20 | 3.98 | – | – | – | – | – | – | –
4 | CC[C@H](NC(=O)[C@H]1CN(c2ccc(C(=N)N)cc2)C(=O)O1)c1cccc(OC)c1 [Compound 24, (5R)‐3‐(4‐carbamimidoylphenyl)‐N‐[(1S)‐1‐(3‐methoxyphenyl)propyl]‐2‐oxo‐oxazolidine‐5‐carboxamide] | – | > 20 | 1.58 | > 20 | > 20 | 5.01 | 0.0316 | 5.16 | ~10 | 2.51 | – | – | – | –
5 | COc1cccc([C@@H](NC(=O)[C@H]2CN(c3ccc(C(=N)N)cc3)C(=O)O2)C2CC2)c1 [Compound 25, (5R)‐3‐(4‐carbamimidoylphenyl)‐N‐((1S)‐cyclopropyl(3‐methoxyphenyl)methyl)‐2‐oxooxazolidine‐5‐carboxamide] | – | > 20 | 0.251 | > 20 | > 20 | 0.794 | 0.0316 | – | – | – | – | – | – | –
6 | COc1cccc(C(C)(C)NC(=O)[C@H]2CN(c3ccc(C(=N)N)cc3)C(=O)O2)c1 [Compound 26, (5R)‐3‐(4‐carbamimidoylphenyl)‐N‐(2‐(3‐methoxyphenyl)propan‐2‐yl)‐2‐oxooxazolidine‐5‐carboxamide] | – | – | 10 | – | – | > 20 | 0.158 | – | – | – | – | – | – | –
7 | CC(C)(NC(=O)[C@H]1CN(c2ccc(C(=N)N)cc2)C(=O)O1)c1ccccc1 [Compound 27, (5R)‐3‐(4‐carbamimidoylphenyl)‐2‐oxo‐N‐(2‐phenylpropan‐2‐yl)oxazolidine‐5‐carboxamide] | – | > 20 | > 20 | > 20 | > 20 | > 20 | 0.794 | – | – | 39.8 | – | – | – | –
8 | CC(C)(NC(=O)[C@H]1CN(c2ccc(C(=N)N)cc2)C(=O)O1)C(=O)Nc1ccccc1 [Compound 28, (5R)‐3‐(4‐carbamimidoylphenyl)‐N‐(2‐methyl‐1‐oxo‐1‐(phenylamino)propan‐2‐yl)‐2‐oxooxazolidine‐5‐carboxamide] | – | – | 6.31 | – | – | – | 0.0316 | 6.20 | – | 1.58 | – | – | – | –
9 | C[C@H](NC(=O)[C@H]1CN(c2ccc(C(=N)N)cc2)C(=O)O1)c1cccc2ccccc12 [Compound 29, (5R)‐3‐(4‐carbamimidoylphenyl)‐N‐((S)‐1‐(naphthalen‐1‐yl)ethyl)‐2‐oxooxazolidine‐5‐carboxamide] | – | > 20 | 0.794 | > 20 | > 20 | 1 | 0.0126 | – | – | 0.631 | – | – | – | –
10 | C[C@H](NC(=O)[C@H]1CN(c2ccc(C(=N)N)cc2)C(=O)O1)c1ccc2ccccc2c1 [Compound 30, (5R)‐3‐(4‐carbamimidoylphenyl)‐N‐[(1S)‐1‐(2‐naphthyl)ethyl]‐2‐oxo‐oxazolidine‐5‐carboxamide] | – | > 20 | 3.98 | > 20 | > 20 | 10 | 0.1 | – | – | 3.16 | 10 | – | – | –
11 | CC(C)(NC(=O)[C@H]1CN(c2ccc(C(=N)N)cc2)C(=O)O1)c1cccc2ccccc12 [Compound 31, (5R)‐3‐(4‐carbamimidoylphenyl)‐N‐(2‐(naphthalen‐1‐yl)propan‐2‐yl)‐2‐oxooxazolidine‐5‐carboxamide] | – | – | 5.01 | – | – | > 20 | 0.0794 | – | – | – | ~6 | – | – | –
12 | CC[C@H](NC(=O)[C@H]1CN(c2ccc(C(=N)N)cc2)C(=O)O1)c1ccnc2ccccc12 [Compound 33, (5R)‐3‐(4‐carbamimidoylphenyl)‐2‐oxo‐N‐((1S)‐1‐(quinolin‐4‐yl)propyl)oxazolidine‐5‐carboxamide] | – | – | 6.31 | – | – | > 20 | 0.126 | – | – | – | – | – | – | –
13 | CC[C@H](NC(=O)[C@H]1CN(c2ccc(C(=N)N)nc2)C(=O)O1)c1cccc2ccccc12 [Compound 34, (5R)‐3‐(6‐carbamimidoylpyridin‐3‐yl)‐N‐((1S)‐1‐(naphthalen‐1‐yl)propyl)‐2‐oxooxazolidine‐5‐carboxamide] | – | – | 0.631 | – | – | 0.501 | 0.00501 | 5.76 | – | – | – | > 100 | – | –
14 | CC[C@H](NC(=O)[C@H]1CN(c2ccc(CN)cc2)C(=O)O1)c1cccc2ccccc12 [Compound 35, (5R)‐3‐(4‐(aminomethyl)phenyl)‐N‐[(1S)‐1‐(naphthalen‐1‐yl)propyl]‐2‐oxooxazolidine‐5‐carboxamide] | – | – | 5.01 | – | – | 10 | 0.316 | – | – | 5.01 | – | – | ~100 | –
15 | COc1cccc(C(C)NC(=O)C2CC(=O)N(c3ccc(C(=N)N)cc3)C2)c1 [Compound 43, (5R)‐1‐(4‐carbamimidoylphenyl)‐N‐[(1S)‐1‐(3‐methoxyphenyl)ethyl]‐5‐oxopyrrolidine‐3‐carboxamide] | – | > 20 | 5.01 | > 20 | > 20 | > 20 | 0.316 | – | – | 7.94 | – | – | – | –
16 | COc1cccc([C@H](C)NC[C@H]2CN(c3ccc(C(=N)N)cc3)C(=O)O2)c1 [Compound 49, 4‐((S)‐5‐((((S)‐1‐(3‐methoxyphenyl)ethyl)amino)methyl)‐2‐oxooxazolidin‐3‐yl)benzimidamide] | – | > 20 | > 20 | > 20 | > 20 | > 20 | 10 | – | – | – | – | – | – | 40
